The source of these data is patent US10793563B2, “GCN2 inhibitors and uses thereof” (Merck Patent GmbH, priority 2018, dated 2020).

Structures are written as SMILES. Some results are limits rather than exact numbers.

Usually IC50 stands for the concentration that inhibits the measured activity by half. A low value points to higher potency.

Sequence of GCN2 kinase (Q9P2K8 whole entry): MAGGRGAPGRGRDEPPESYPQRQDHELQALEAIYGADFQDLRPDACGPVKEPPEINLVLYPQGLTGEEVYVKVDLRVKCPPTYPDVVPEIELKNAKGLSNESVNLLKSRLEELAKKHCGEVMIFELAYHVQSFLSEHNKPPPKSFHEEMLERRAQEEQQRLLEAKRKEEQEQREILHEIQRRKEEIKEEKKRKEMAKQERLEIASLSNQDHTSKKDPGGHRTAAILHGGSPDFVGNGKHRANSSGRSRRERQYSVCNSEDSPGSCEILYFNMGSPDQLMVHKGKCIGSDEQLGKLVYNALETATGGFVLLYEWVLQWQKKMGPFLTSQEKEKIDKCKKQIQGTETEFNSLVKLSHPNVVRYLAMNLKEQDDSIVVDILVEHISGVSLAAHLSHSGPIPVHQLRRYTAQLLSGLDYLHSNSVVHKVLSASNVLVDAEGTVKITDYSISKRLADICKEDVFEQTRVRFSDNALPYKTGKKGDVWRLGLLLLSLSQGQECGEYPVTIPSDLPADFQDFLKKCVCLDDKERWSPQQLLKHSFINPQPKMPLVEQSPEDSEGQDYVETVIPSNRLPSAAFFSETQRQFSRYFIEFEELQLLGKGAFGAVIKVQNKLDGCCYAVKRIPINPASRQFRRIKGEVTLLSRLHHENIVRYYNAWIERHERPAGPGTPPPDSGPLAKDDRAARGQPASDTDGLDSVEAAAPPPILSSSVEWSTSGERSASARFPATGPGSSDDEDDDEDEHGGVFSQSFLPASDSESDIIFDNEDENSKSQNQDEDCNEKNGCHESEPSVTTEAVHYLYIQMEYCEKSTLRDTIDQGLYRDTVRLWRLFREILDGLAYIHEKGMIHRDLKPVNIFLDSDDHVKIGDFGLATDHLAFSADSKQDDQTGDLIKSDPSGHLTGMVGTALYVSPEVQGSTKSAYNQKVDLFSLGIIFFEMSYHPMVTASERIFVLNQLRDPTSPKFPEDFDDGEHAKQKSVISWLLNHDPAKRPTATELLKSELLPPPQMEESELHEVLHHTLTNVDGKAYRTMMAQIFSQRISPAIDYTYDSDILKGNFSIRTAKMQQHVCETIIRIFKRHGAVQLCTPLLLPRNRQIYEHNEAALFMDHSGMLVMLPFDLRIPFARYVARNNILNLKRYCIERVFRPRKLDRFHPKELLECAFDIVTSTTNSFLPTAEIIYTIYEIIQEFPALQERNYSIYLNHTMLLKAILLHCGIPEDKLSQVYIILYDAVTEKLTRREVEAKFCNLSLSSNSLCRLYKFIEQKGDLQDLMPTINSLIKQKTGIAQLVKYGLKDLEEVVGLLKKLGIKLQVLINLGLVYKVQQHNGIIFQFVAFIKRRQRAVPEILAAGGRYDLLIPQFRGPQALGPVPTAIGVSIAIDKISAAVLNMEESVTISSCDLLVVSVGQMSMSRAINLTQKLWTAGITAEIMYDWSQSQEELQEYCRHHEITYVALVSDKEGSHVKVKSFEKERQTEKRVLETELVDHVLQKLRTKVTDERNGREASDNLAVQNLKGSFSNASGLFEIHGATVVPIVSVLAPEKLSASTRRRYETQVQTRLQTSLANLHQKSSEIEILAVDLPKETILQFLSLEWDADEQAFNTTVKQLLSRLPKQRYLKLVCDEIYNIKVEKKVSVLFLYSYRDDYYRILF

The target of the first test is GCN2 kinase (Homo sapiens (Human), UniProt Q9P2K8). Put plainly: GCN2 Enzyme Inhibition Assay (Transcreener ADP2 fluorescence polarization). Format: biochemical. The note with it: 280 μM ATP, 200 μM (RS)7 peptide, 4 nM GCN2, 25° C. An outline of the steps:
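Transcreener ADP2 fluorescence polarization detection of ADP from 4 nM GCN2 with (RS)7 substrate in 25 mM Tris-HCl pH 7.5, 50 mM NaCl, 10 mM MgCl2, 1 mM DTT. Compound pre-incubated with enzyme 10 min at 25 °C; reaction started by ATP, run 1 h at 25 °C. IC50 and Ki(app) by tight-binding fit.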
(In general: In fluorescence polarisation assays a small probe gives low polarisation when free and higher when bound to something large.)
In turn, `C[C@@H]1CN(c2ccnc(-c3cnc4ccc(C(F)(F)F)cn34)n2)C[C@H](C)N1C(=O)c1ccncc1` [I-483, (cis-2,6-dimethyl-4-(2-(6-(trifluoromethyl)imidazo[1,2-a]pyridin-3-yl)pyrimidin-4-yl)piperazin-1-yl)(pyridin-4-yl)methanone] showed an IC50 of 100 to 1000 nM.

The molecule `C[C@H]1[C@H](CNS(C)(=O)=O)NCCN1c1ccnc(-c2cnc3ccc(C(F)(F)F)cn23)n1` [I-471, N-(((2 S,3 S)-3-methyl-4-(2-(6-(trifluoromethyl)imidazo[1,2-a]pyridin-3-yl)pyrimidin-4-yl)piperazin-2-yl)methyl)methanesulfonamide] registered an IC50 of 100 to 1000 nM. As to `CC(C)(C)OC(=O)N1CC2(C1)CN(c1ccnc(-c3cnc4ccc(C(F)(F)F)cn34)n1)CC(C)(C)O2` [I-292, tert-butyl 6,6-dimethyl-8-(2-(6-(trifluoromethyl)imidazo[1,2-a]pyridin-3-yl)pyrimidin-4-yl)-5-oxa-2,8-diazaspiro[3.5]nonane-2-carboxylate], the IC50 fell in the range of 100 to 1000 nM.

For the molecule `Cc1nnc(C2CN(c3ccnc(-c4cnc5ccc(C(F)(F)F)cn45)n3)CCN2)[nH]1` (stereo not drawn) [I-337, 3-(4-(3-(5-methyl-4H-1,2,4-triazol-3-yl)piperazin-1-yl)pyrimidin-2-yl)-6-(trifluoromethyl)imidazo[1,2-a]pyridine], the IC50 was in the range of 100 to 1000 nM. Same read-out and setting: under `Cc1cc(-c2cnc3ccc(Cl)cn23)nc(N2C[C@H](C)C[C@H](N=S(C)(C)=O)C2)n1` [I-168, (((3 S,5R)-1-(4-(6-chloroimidazo[1,2-a]pyridin-3-yl)-6-methylpyrimidin-2-yl)-5-methylpiperidin-3-yl)imino)dimethyl-λ6-sulfanone] stands 10 to 100 nM; under `O=C1CCC(C(=O)N2CCN(c3ccnc(-c4cnc5ccc(C(F)(F)F)cn45)n3)CC2c2cn[nH]c2)N1` (stereo not drawn) [I-469, 5-(2-(1H-pyrazol-4-yl)-4-(2-(6-(trifluoromethyl)imidazo[1,2-a]pyridin-3-yl)pyrimidin-4-yl)piperazine-1-carbonyl)pyrrolidin-2-one], 10 to 100 nM; under `C[C@H]1CN(c2ccnc(-c3cnc4ccc(C(F)(F)F)cn34)n2)C[C@@H](C(N)=O)O1` [I-264, (2S,6S)-6-methyl-4-(2-(6-(trifluoromethyl)imidazo[1,2-a]pyridin-3-yl)pyrimidin-4-yl)morpholine-2-carboxamide], less than 10 nM. Still for that read-out and setting: under `CC1C(C(N)=O)NCCN1c1ccnc(-c2cnc3cc(F)c(C4CC4)cn23)n1` (stereo not drawn) [I-427, 4-(2-(6-cyclopropyl-7-fluoroimidazo[1,2-a]pyridin-3-yl)pyrimidin-4-yl)-3-methylpiperazine-2-carboxamide] stands 10 to 100 nM; under `NC(=O)[C@@H]1CCCN(c2nccc(-c3cnc4ccc(C(F)(F)F)cn34)n2)C1` [I-152, (R)-1-(4-(6-(trifluoromethyl)imidazo[1,2-a]pyridin-3-yl)pyrimidin-2-yl)piperidine-3-carboxamide], 10 to 100 nM; under `Cc1[nH]ncc1[C@H]1CN(c2ccnc(-c3cnc4cc(F)c(C5CC5)cn34)n2)C[C@H](C)O1` [I-428, (2S,6S)-4-(2-(6-cyclopropyl-7-fluoroimidazo[1,2-a]pyridin-3-yl)pyrimidin-4-yl)-2-methyl-6-(5-methyl-1H-pyrazol-4-yl)morpholine], 10 to 100 nM. In turn, `C[C@@H]1CN(c2ccnc(-c3cnc4ccc(C(F)(F)F)cn34)n2)C[C@H](C)N1C(=O)C1CC1(F)F` (stereo partly drawn) [I-438, (2,2-difluorocyclopropyl)(cis-2,6-dimethyl-4-(2-(6-(trifluoromethyl)imidazo[1,2-a]pyridin-3-yl)pyrimidin-4-yl)piperazin-1-yl)methanone] showed an IC50 of 10 to 100 nM. The same measure, in the same setting: under `Cc1[nH]ncc1[C@H]1CN(c2ccnc(-c3cnc4ccc(C(F)(F)F)cn34)n2)C[C@@H](C)O1` [I-125, (2R,6S)-2-methyl-6-(5-methyl-1H-pyrazol-4-yl)-4-(2-(6-(trifluoromethyl)imidazo[1,2-a]pyridin-3-yl)pyrimidin-4-yl)morpholine] stands less than 10 nM; under `O=C([C@H]1C[C@H]1F)N1CCN(c2ccnc(-c3cnc4ccc(C(F)(F)F)cn34)n2)CC1c1cn[nH]c1` (stereo in doubt) [I-485, (2-(1H-pyrazol-4-yl)-4-(2-(6-(trifluoromethyl)imidazo[1,2-a]pyridin-3-yl)pyrimidin-4-yl)piperazin-1-yl)((1R,2R)-2-fluorocyclopropyl)methanone], 10 to 100 nM; under `CC(C)(C)OC(=O)NC1CN(c2ccnc(-c3cnc4ccc(Cl)cn34)n2)CC[C@H]1O` (stereo in doubt) [I-243, tert-butyl ((3R,4R)-1-(2-(6-chloroimidazo[1,2-a]pyridin-3-yl)pyrimidin-4-yl)-4-hydroxypiperidin-3-yl)carbamate], 100 to 1000 nM.

Consider `O=C(CO)N[C@H]1C[C@H](O)CN(c2ccnc(-c3cnc4ccc(C(F)(F)F)cn34)n2)C1` [I-253, 2-hydroxy-N-((3S,5S)-5-hydroxy-1-(2-(6-(trifluoromethyl)imidazo[1,2-a]pyridin-3-yl)pyrimidin-4-yl)piperidin-3-yl)acetamide], for which the IC50 was 100 to 1000 nM. For the molecule `CC1CN(c2ccnc(-c3cnc4ccc(C(F)(F)F)cn34)n2)CCC1n1cccn1` (stereo not drawn) [I-379, 3-(4-(3-methyl-4-(1H-pyrazol-1-yl)piperidin-1-yl)pyrimidin-2-yl)-6-(trifluoromethyl)imidazo[1,2-a]pyridine], the IC50 was in the range of 10 to 100 nM. The same measure, in the same setting: under `CC1(O)CC(C(=O)N2CCN(c3ccnc(-c4cnc5ccc(C(F)(F)F)cn45)n3)CC2c2cn[nH]c2)C1` (stereo not drawn) [I-509, (2-(1H-pyrazol-4-yl)-4-(2-(6-(trifluoromethyl)imidazo[1,2-a]pyridin-3-yl)pyrimidin-4-yl)piperazin-1-yl)(3-hydroxy-3-methylcyclobutyl)methanone] stands 100 to 1000 nM; under `Cc1noc([C@H]2CN(c3ccnc(-c4cnc5ccc(C(F)F)cn45)n3)C[C@@H](C)O2)n1` [I-497, (2R,6R)-4-(2-(6-(difluoromethyl)imidazo[1,2-a]pyridin-3-yl)pyrimidin-4-yl)-2-methyl-6-(3-methyl-1,2,4-oxadiazol-5-yl)morpholine], 100 to 1000 nM. Still for that read-out and setting: under `CC(C)(C)OC(=O)C1(O)CCCN(c2ccnc(-c3cnc4ccc(C(F)(F)F)cn34)n2)C1` (stereo not drawn) [I-212, tert-butyl 3-hydroxy-1-(2-(6-(trifluoromethyl)imidazo[1,2-a]pyridin-3-yl)pyrimidin-4-yl)piperidine-3-carboxylate] stands 100 to 1000 nM; under `FC(F)(F)c1ccc2ncc(-c3nccc(N4CCN(C5CCOCC5)C(c5cn[nH]c5)C4)n3)n2c1` (stereo not drawn) [I-456, 3-(4-(3-(1H-pyrazol-4-yl)-4-(tetrahydro-2H-pyran-4-yl)piperazin-1-yl)pyrimidin-2-yl)-6-(trifluoromethyl)imidazo[1,2-a]pyridine], 10 to 100 nM; under `NC(=O)CC1CCCN(c2ccnc(-c3cnc4ccc(Cl)cn34)n2)C1` (stereo not drawn) [I-162, 2-(1-(2-(6-chloroimidazo[1,2-a]pyridin-3-yl)pyrimidin-4-yl)piperidin-3-yl)acetamide], 10 to 100 nM. Molecule `O=C(O)C1CN(c2ccnc(-c3cnc4ccc(C(F)(F)F)cn34)n2)CC(F)(F)C1` (stereo not drawn) [I-205, 5,5-Difluoro-1-[2-(6-trifluoromethyl-imidazo[1,2-a]pyridin-3-yl)-pyrimidin-4-yl]-piperidine-3-carboxylic acid] gave an IC50 of 10 to 100 nM. The same measure, in the same setting: the result for `Cc1nnc(C)n1[C@@H]1C[C@H](C)CN(c2nccc(-c3cnc4ccc(C(F)(F)F)cn34)n2)C1` [I-463, 3-(2-((3R,5S)-3-(3,5-dimethyl-4H-1,2,4-triazol-4-yl)-5-methylpiperidin-1-yl)pyrimidin-4-yl)-6-(trifluoromethyl)imidazo[1,2-a]pyridine] reads 10 to 100 nM; that for `COC(=O)C1CC12CCCN(c1ccnc(-c3cnc4ccc(Cl)cn34)n1)C2` (stereo not drawn) [I-133, methyl 5-(2-(6-chloroimidazo[1,2-a]pyridin-3-yl)pyrimidin-4-yl)-5-azaspiro[2.5]octane-1-carboxylate], 100 to 1000 nM. In the case of `Cc1cnc(N2CCC[C@H](C(N)=O)C2)nc1-c1cnc2ccc(Cl)cn12` [I-174, (S)-1-(4-(6-chloroimidazo[1,2-a]pyridin-3-yl)-5-methylpyrimidin-2-yl)piperidine-3-carboxamide], the IC50 lay in the range of 10 to 100 nM. In turn, `Cc1nn(C)cc1[C@@H]1C[C@@H](C)CN(c2nccc(-c3cnc4ccc(C(F)(F)F)cn34)n2)C1` [I-140, 3-(2-((3S,5R)-3-(1,3-dimethyl-1H-pyrazol-4-yl)-5-methylpiperidin-1-yl)pyrimidin-4-yl)-6-(trifluoromethyl)imidazo[1,2-a]pyridine] came in with an IC50 of 100 to 1000 nM. Same read-out and setting: under `Cc1cnc(N2C[C@H](C)C[C@H](N=S(C)(C)=O)C2)nc1-c1cnc2ccc(Cl)cn12` [I-167, (((3 S,5R)-1-(4-(6-chloroimidazo[1,2-a]pyridin-3-yl)-5-methylpyrimidin-2-yl)-5-methylpiperidin-3-yl)imino)dimethyl-λ6-sulfanone] stands 100 to 1000 nM.

Staying with this test, now noted: Ki(app); 280 μM ATP, 200 μM (RS)7 peptide, 4 nM GCN2, 25° C.
Molecule `O=C1NCC2CN(c3ccnc(-c4cnc5ccc(Cl)cn45)n3)CCN12` (stereo not drawn) [I-97, 7-(2-{6-chloroimidazo[1,2-a]pyridin-3-yl}pyrimidin-4-yl)-octahydroimidazo[1,5-a]pyrazin-3-one] returned a Ki of 10 to 100 nM. `C[C@@H]1CN(c2ccnc(-c3cnc4ccc(C(F)(F)F)cn34)n2)[C@H](C)[C@H](c2cn[nH]c2)N1` (stereo in doubt) [I-38, 3-[4-[2,5-dimethyl-3-(1H-pyrazol-4-yl)piperazin-1-yl]pyrimidin-2-yl]-6-(trifluoromethyl)imidazo[1,2-a]pyridine] returned a Ki of 10 to 100 nM. Still for that read-out and setting: under `O=C1CCN(c2ccnc(-c3cnc4ccc(Cl)cn34)n2)CCN1` [I-26, 1-[2-(6-Chloroimidazo[1,2-a]pyridin-3-yl)pyrimidin-4-yl]-1,4-diazepan-5-one] stands 100 to 1000 nM.
